We go through 1 molecule from article PMC12193579, “Pro-Apoptotic Activity of 1-(4,5,6,7-Tetrabromo-1H-benzimidazol-1-yl)propan-2-one, an Intracellular Inhibitor of PIM-1 Kinase in Acute Lymphoblastic Leukemia and Breast Cancer Cells” (International Journal of Molecular Sciences, 2025).

Experiment [1] concerns CK2 in MCF-7 cells (Ser529 in NF-κB p65). In words: Western blot of phosphorylated p65 (Ser529), intracellular CK2 inhibition, MCF-7. It is filed as cell-based, human. The settings on record: 8 µM, 24 h, untreated cells = 1. Here is the method: After 24 h of treatment, we assessed site-specific phosphorylation of Ser529 in NF-κB p65 and Ser112 in BAD—a marker of PIM kinase activity—using Western blot analysis (Figure 8). The data for BAD confirmed intracellular inhibition of this kinase by the tested compounds in both cell lines in a dose-dependent manner. A statistically significant decrease in phosphorylated BAD was observed following treatment with 16 µM of compound 1, with relative protein levels reduced to 0.48 and 0.46 in CCRF-CEM and MCF-7 cells, respectively (Figure 8a–c).
Exponentially growing CCRF-CEM or MCF-7 cells were seeded at a density of 6 × 10^5 cells per 6 cm dish. Compounds were then added, with a final DMSO concentration of 0.5%. Cell lysates were prepared as previously described. The ECL substrate was used for signal detection, and the immunoblots were scanned using a G:BOX Chemi imaging system (Syngene, Cambridge, UK) equipped with GeneSys software, Version 1.4.3.0 (Syngene, Cambridge, UK).
For densitometric analysis, immunoblots were scanned using the G:BOX Chemi system (Syngene), and the band intensities of phosphorylated and total proteins were quantified with GeneSys software (Syngene, Cambridge, UK). The levels of phosphorylated proteins were normalized to GAPDH, with the value for untreated cells set to 1, and subsequently expressed as a percentage relative to the appropriate control.
On the technique in general: A western blot detects proteins with antibodies after separation by electrophoresis.

In experiment [2] the test system is CCRF-CEM (acute lymphoblastic leukemia). Description: MTT-based viability assay, CCRF-CEM. The experiment is classed as cell-based, human. The procedure:
(§1) 3. The cytotoxicity of the newly obtained inhibitors, i.e., 1, 2, and 4 was tested towards four cell lines, i.e., CCRF-CEM (acute lymphoblastic leukemia ALL), MCF-7 (breast carcinoma), MDA-MB-231 (triple negative breast carcinoma), and Vero (Cercopithecus aethiops kidney).
(§2) The CCRF-CEM (acute lymphoblastic leukemia, ALL) and MDA-MB-231 (triple-negative breast adenocarcinoma) cell lines were obtained from the European Collection of Authenticated Cell Cultures (ECACC), while the MCF-7 (hormone-dependent breast adenocarcinoma) and Vero (Cercopithecus aethiops kidney) cell lines were purchased from the American Type Culture Collection (ATCC, Manassas, VA, USA). CCRF-CEM cells were maintained in RPMI-1640 medium, whereas MCF-7 and MDA-MB-231 cells were cultured in DMEM (Sigma-Aldrich Chemical Company, St. Louis, MO, USA). Vero cells were cultured in minimum essential medium eagle (MEM; Sigma-Aldrich). All media were supplemented with 10% fetal bovine serum (FBS), 2 mM L-glutamine, and antibiotics (100 U/mL penicillin and 100 µg/mL streptomycin) (Sigma-Aldrich). Cells were grown in 75-cm^2 culture flasks (Googlab Scientific, Rakocin, Poland) in a humidified atmosphere containing 5% CO2 at 37 °C. All experiments were performed using exponentially growing cultures. Stock solutions of the test compounds were prepared in DMSO and stored at –80 °C for up to one month.
(§3) Following incubation with the tested compounds, the MTT assay was carried out as previously described. Optical density was measured at 570 nm using a BioTek microplate reader (Winooski, VT, USA). All measurements were performed in at least three independent biological replicates.
Background: Tetrazolium dyes change colour on reduction, which living cells bring about.

Experiment [3] deals with MCF-7 (breast carcinoma). In words: MTT-based viability assay, MCF-7. The experiment is classed as cell-based, human. Here is the method: as §1, §2, §3
Experiment [4] concerns CCRF-CEM cells. Description: cell cycle progression by flow cytometry, CCRF-CEM. It is filed as cell-based, human. The following applies: 16 µM, 48 h. Here is the method:
Since CK2 and PIM kinases regulate cell cycle progression, their inhibition may alter the distribution of cells across different cell cycle phases. […] For control cells, the percentage of G2/M cells was 17%. In addition to those changes, we observed cells in the sub-G1 phase, which are apoptotic cells. Accumulation of cells in this phase reflects DNA degradation characteristic of apoptotic cells. The largest percentage of these cells, i.e., 32% was determined in 16 µM 1-treated cells (Figure 6a,b).
(§4) CCRF-CEM and MCF-7 cells were cultured in 6-well plates and treated with the tested compounds for 48 h. After exposure to the compounds, the cells were collected, washed with cold PBS, and fixed in 70% ethanol at –20 °C for at least 24 h. Subsequently, the cells were washed in PBS and stained according to the procedure previously described by our group. The cellular DNA content was measured by flow cytometry using a BD Accuri C6 Plus flow cytometer (BD Biosciences, San Jose, CA, USA). The resulting DNA histograms were analyzed with BD Accuri C6 Plus software (San Diego, CA, USA) to assess the distribution of cells across different phases of the cell cycle.
(In flow cytometry, cells or beads pass a laser one at a time.)

The subject of experiment [5] is Vero (Cercopithecus aethiops kidney). In words: MTT-based viability assay, Vero. It is filed as cell-based. The following applies: Chlorocebus sabaeus, MTT, 48 h, non-cancerous cells, read-out: IC50 [µM] Vero. The procedure: as §1, §2, §3
Experiment [6] has as its target T1, PIM-1 kinase (Homo sapiens, UniProt P11309).
T1 construct: made in house
In words: radiometric P81 filter isotopic kinase assay, PIM-1. The experiment is classed as biochemical. Here is the method: Synthetic peptide […] served as the substrate for CK2, while peptide […] was used as the substrate for PIM-1.
The synthesized compounds were evaluated for their inhibitory activity against human CK2α, the human CK2 holoenzyme, and PIM-1 using the P81 filter-based isotopic assay, as previously described. […] The experimental data were fitted to a dose–response curve using non-linear regression analysis (variable slope) Y = Bottom + (Top − Bottom)/(1 + 10^((LogIC50 − X) × HillSlope) equation in GraphPad Prism (Prism 9, version 9.0.1).

In experiment [7] the test system is CK2 in CCRF-CEM cells (Ser529 in NF-κB p65). Description: PhosFlow analysis of NF-κB p65 Ser529 phosphorylation, CCRF-CEM. The experiment is classed as cell-based, human. The settings on record: 16 µM, 24 h. Here is the method: CCRF-CEM cells were prepared following the BD PhosFlow™ Protocol for Human PBMCs using NF-κB p65 (pS529)-PE (#558423), BD PhosFlow™ Perm Buffer III (#558050), Cytofix Fixation Buffer (#554655), and Stain Buffer FBS (#554656), all obtained from Becton Dickinson. Flow cytometric analysis was performed using a BD Accuri C6 Plus cytometer (Becton Dickinson) according to the manufacturer’s instructions.

For experiment [8], the system named is MCF-7 cells. In words: cell cycle progression by flow cytometry, MCF-7. It is filed as cell-based, human. The following applies: 48 h. Here is the method: Additionally, we observed the prolongation of G2/M in MCF-7 treated with 1 at the highest concentration. […] 1 induced G2/M phase arrest in MCF-7 with the highest effect detected for the 16 µM concentration, manifested as 32% cells in that stage, whereas in the control, the percentage of G2/M cells was 22%.
as §4

[9] abbreviates: IC50 for Vero/IC50 for cancer cells.

T1 sequence (P11309 whole entry): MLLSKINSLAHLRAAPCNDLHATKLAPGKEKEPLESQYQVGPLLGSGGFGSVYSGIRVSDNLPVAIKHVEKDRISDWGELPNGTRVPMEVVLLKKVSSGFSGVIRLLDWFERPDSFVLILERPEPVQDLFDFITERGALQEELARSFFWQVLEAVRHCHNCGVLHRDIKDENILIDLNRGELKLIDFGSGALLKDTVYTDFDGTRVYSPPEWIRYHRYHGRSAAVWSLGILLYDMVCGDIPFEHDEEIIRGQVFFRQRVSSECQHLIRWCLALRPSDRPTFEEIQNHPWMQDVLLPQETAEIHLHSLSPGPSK

What is called IC50 is the point on the concentration scale where inhibition reaches its midpoint. As to `CC(=O)Cn1cnc2c(Br)c(Br)c(Br)c(Br)c21` [compound 1, 1-(4,5,6,7-tetrabromo-1H-benzimidazol-1-yl)propan-2-one], the “relative level of p65-P (Ser529), MCF-7” value in experiment [1] is 0.84. Also, the IC50 in experiment [2] (Homo sapiens, CCRF-CEM, MTT, 48 h, read-out: IC50 [µM] CCRF-CEM) was found to be 12.4 ± 0.82 µM; in experiment [3] (Homo sapiens, MCF7, MTT, 48 h, read-out: IC50 [µM] MCF-7), 17.1 ± 2.07 µM; in experiment [5] it was 20.2 ± 3.59 µM; in experiment [6], 0.52 ± 0.02 µM. In experiment [2] (setting [9]), the “SI (selectivity index) CCRF-CEM” value was 1.62. Moreover, the “SI (selectivity index) MCF-7” value in experiment [3] (setting [9]) is given as 1.18. For the same molecule, in experiment [4], the “CCRF-CEM cells in the sub-G1 phase” value was determined as 32%. Also, the “CCRF-CEM cells in the G2/M phase” value in experiment [4] (control 17%) is given as 10%. Also, the “CCRF-CEM cells in the S phase” value in experiment [4] (control 33%) was 20%. Also, the remaining activity at 2 µM in experiment [6] (cpd. concentration 2 μM, read-out: PIM-1 Residual Activity [%]) was 22.4 ± 0.9%. For the same molecule, in experiment [6] (cpd. concentration 5 μM, read-out: PIM-1 Residual Activity [%]), the remaining activity at 5 µM worked out at 10.3 ± 0.7%. Moreover, the remaining activity at 20 µM in experiment [6] (cpd. concentration 20 μM, read-out: PIM-1 Residual Activity [%]) turned out to be 2.9 ± 0.2%. Also, the “p65-P-negative CCRF-CEM cells” value in experiment [7] is 29%. For the same molecule, in experiment [8] (8 µM, control 17%), the “MCF-7 cells in the S phase” value is listed as 11%. Further, in experiment [8] (16 µM, control 22%), the “MCF-7 cells in the G2/M phase” value is on record as 32%.
